Where two headings read alike, the source gives them in different places.
Key:
Type in all cases: in vivo
[1] = system: Surinam grass (Brachiaria decumbens); experiment: Test B pre/postemergence; settings: Urochloa decumbens; for pest or weed control at 125 g/ha: 125 g ai/ha; for pest or weed control at 62 g/ha: 62 g ai/ha
Summary of the method: (§1)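 Test chemicals in a non-phytotoxic solvent mixture with surfactant were applied preemergence to planted seeds and postemergence to plants 2 to 18 cm tall (1- to 4-leaf stage). After 13 to 15 days in a greenhouse, injury was visually rated against untreated controls on a 0 to 100 scale.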

[2] = system: barnyardgrass (Echinochloa crus-galli); experiment: Test B pre/postemergence; settings: Echinochloa crus-galli, post-emergence, Postemergence, scale 0 to 100 (0 no effect, 100 complete control), read-out: Barnyardgrass plant response rating
Summary of the method: as §1

[3] = system: cocklebur (Xanthium strumarium); experiment: Test B pre/postemergence; settings: Xanthium strumarium; for pest or weed control at 62 g/ha: 62 g ai/ha; for pest or weed control at 125 g/ha: 125 g ai/ha
Summary of the method: as §1

corn (Zea mays) = experiment: Test B pre/postemergence; settings: Zea mays
Summary of the method: as §1

[4] = system: crabgrass (Digitaria sanguinalis); experiment: Test B pre/postemergence; settings: Digitaria sanguinalis; for pest or weed control at 62 g/ha: 62 g ai/ha; for pest or weed control at 125 g/ha: 125 g ai/ha
Summary of the method: as §1

[5] = system: giant foxtail (Setaria faberii); experiment: Test B pre/postemergence; settings: Setaria faberi; for pest or weed control at 125 g/ha: 125 g ai/ha; for pest or weed control at 62 g/ha: 62 g ai/ha
Summary of the method: as §1

[6] = system: lambsquarters (Chenopodium album); experiment: Test B pre/postemergence; settings: Chenopodium album, post-emergence, Postemergence, scale 0 to 100 (0 no effect, 100 complete control), read-out: Lambsquarters plant response rating
Summary of the method: as §1

[7] = system: morningglory (Ipomoea coccinea); experiment: Test B pre/postemergence; settings: Ipomoea; for pest or weed control at 62 g/ha: 62 g ai/ha; for pest or weed control at 125 g/ha: 125 g ai/ha
Summary of the method: as §1

[8] = system: pigweed (Amaranthus retroflexus); experiment: Test B pre/postemergence; settings: Amaranthus retroflexus, post-emergence, Postemergence, scale 0 to 100 (0 no effect, 100 complete control), read-out: Pigweed plant response rating
Summary of the method: as §1

[9] = system: velvetleaf (Abutilon theophrasti); experiment: Test B pre/postemergence; settings: Abutilon theophrasti; for pest or weed control at 62 g/ha: 62 g ai/ha; for pest or weed control at 125 g/ha: 125 g ai/ha
Summary of the method: as §1

[10] = system: wheat (Triticum aestivum); experiment: Test B pre/postemergence; settings: Triticum aestivum, scale 0 to 100 (0 no effect, 100 complete control); for plant injury at 62 g/ha: 62 g ai/ha; for plant injury at 125 g/ha: 125 g ai/ha
Summary of the method: as §1

[11] = system: blackgrass (Alopecurus myosuroides); experiment: Test B postemergence; settings: Alopecurus myosuroides, post-emergence, 62 g ai/ha, scale 0 to 100 (0 no effect, 100 complete control), read-out: Blackgrass plant response rating
Summary of the method: as §1

wild oat (Avena fatua) = experiment: Test B postemergence; settings: Avena fatua, post-emergence, scale 0 to 100 (0 no effect, 100 complete control), read-out: Oat, Wild plant response rating
Summary of the method: as §1

[12] = system: barnyardgrass (Echinochloa crus-galli); experiment: Test B flooded paddy test; settings: Echinochloa crus-galli, Flood, scale 0 to 100, read-out: Plant response rating, Barnyardgrass
Summary of the method: (§2)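 Plants were grown to the 2-leaf stage before treatment, then kept in a greenhouse for 13 to 15 days. Injury was rated visually against untreated controls on a 0 to 100 scale, where 0 is no effect and 100 is complete control.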

[13] = system: duck salad (Heteranthera limosa); experiment: Test B flooded paddy test; settings: Heteranthera limosa, Flood, scale 0 to 100, read-out: Plant response rating, Ducksalad
Summary of the method: as §2

rice (Oryza sativa) = experiment: Test B flooded paddy test; settings: Oryza sativa, Flood, scale 0 to 100, read-out: Plant response rating, Rice
Summary of the method: as §2

[14] = system: umbrella sedge (Cyperus difformis); experiment: Test B flooded paddy test; settings: Cyperus difformis, Flood, scale 0 to 100, read-out: Plant response rating, Sedge, Umbrella
Summary of the method: as §2

[15] = post-emergence, Postemergence, scale 0 to 100 (0 no effect, 100 complete control), read-out: Surinam Grass plant response rating
[16] = post-emergence, Postemergence, scale 0 to 100 (0 no effect, 100 complete control), read-out: Cocklebur plant response rating
[17] = post-emergence, Postemergence, scale 0 to 100 (0 no effect, 100 complete control), read-out: Crabgrass plant response rating
[18] = post-emergence, Postemergence, scale 0 to 100 (0 no effect, 100 complete control), read-out: Foxtail, Giant plant response rating
[19] = post-emergence, Postemergence, scale 0 to 100 (0 no effect, 100 complete control), read-out: Morningglory plant response rating
[20] = post-emergence, Postemergence, scale 0 to 100 (0 no effect, 100 complete control), read-out: Velvetleaf plant response rating
[21] = post-emergence, Postemergence, read-out: Wheat plant response rating
[22] = pre-emergence, Preemergence, read-out: Plant response rating, Wheat

`Nc1nc(-c2ccc(Br)cc2)nc(C(=O)O)c1Cl` [Compound 95, 6-amino-2-(4-bromophenyl)-5-chloro-4-pyrimidinecarboxylic acid] was tested, and the pest or weed control at 125 g/ha [1, 15] was 90%, the pest or weed control at 62 g/ha [1, 15] was 80% and the pest or weed control at 125 g/ha ([1]; pre-emergence, Preemergence, scale 0 to 100 (0 no effect, 100 complete control), read-out: Plant response rating, Surinam Grass) was 100%. It also gave a pest or weed control at 62 g/ha ([1]; pre-emergence, Preemergence, scale 0 to 100, 0 no effect, 100 complete control, read-out: Plant response rating, Surinam Grass) of 50%, a pest or weed control at 62 g/ha ([2]; 62 g ai/ha) of 90% and a pest or weed control at 125 g/ha ([2]; 125 g ai/ha) of 90%. The pest or weed control at 62 g/ha [3, 16] was 90%, the pest or weed control at 125 g/ha [3, 16] was 90% and the pest or weed control at 62 g/ha ([3]; pre-emergence, Preemergence, scale 0 to 100, 0 no effect, 100 complete control, read-out: Plant response rating, Cocklebur) was 90%. It also gave a pest or weed control at 125 g/ha ([3]; pre-emergence, Preemergence, scale 0 to 100 (0 no effect, 100 complete control), read-out: Plant response rating, Cocklebur) of 100%, a plant injury at 62 g/ha (corn (Zea mays); post-emergence, Postemergence, 62 g ai/ha, scale 0 to 100 (0 no effect, 100 complete control), read-out: Corn plant response rating) of 80% and a plant injury at 125 g/ha (corn (Zea mays); post-emergence, Postemergence, 125 g ai/ha, scale 0 to 100 (0 no effect, 100 complete control), read-out: Corn plant response rating) of 90%. The Corn plant response rating (crop injury, 0 = no effect, 100 = complete kill) at 62 g/ha (corn (Zea mays); pre-emergence, Preemergence, 62 g ai/ha, scale 0 to 100, 0 no effect, 100 complete control) was 40%, the Corn plant response rating (crop injury, 0 = no effect, 100 = complete kill) at 125 g/ha (corn (Zea mays); pre-emergence, Preemergence, 125 g ai/ha, scale 0 to 100 (0 no effect, 100 complete control)) was 80% and the pest or weed control at 62 g/ha [4, 17] was 80%. For the same molecule, the pest or weed control at 125 g/ha [4, 17] was 80%, the pest or weed control at 62 g/ha ([4]; pre-emergence, Preemergence, scale 0 to 100, 0 no effect, 100 complete control, read-out: Plant response rating, Crabgrass) was 80% and the pest or weed control at 125 g/ha ([4]; pre-emergence, Preemergence, scale 0 to 100 (0 no effect, 100 complete control), read-out: Plant response rating, Crabgrass) was 100%. The pest or weed control at 125 g/ha [5, 18] was 80%, the pest or weed control at 62 g/ha [5, 18] was 80% and the pest or weed control at 125 g/ha ([5]; pre-emergence, Preemergence, scale 0 to 100 (0 no effect, 100 complete control), read-out: Plant response rating, Foxtail, Giant) was 90%. For the same molecule, the pest or weed control at 62 g/ha ([5]; pre-emergence, Preemergence, scale 0 to 100, 0 no effect, 100 complete control, read-out: Plant response rating, Foxtail, Giant) was 50%, the pest or weed control at 62 g/ha ([6]; 62 g ai/ha) was 100% and the pest or weed control at 125 g/ha ([6]; 125 g ai/ha) was 100%. The pest or weed control at 62 g/ha [7, 19] was 90%, the pest or weed control at 125 g/ha [7, 19] was 100% and the pest or weed control at 62 g/ha ([7]; pre-emergence, Preemergence, scale 0 to 100, 0 no effect, 100 complete control, read-out: Plant response rating, Morningglory) was 30%. The pest or weed control at 125 g/ha ([7]; pre-emergence, Preemergence, scale 0 to 100 (0 no effect, 100 complete control), read-out: Plant response rating, Morningglory) was 60%, the pest or weed control at 62 g/ha ([8]; 62 g ai/ha) was 100% and the pest or weed control at 125 g/ha ([8]; 125 g ai/ha) was 100%. For the same molecule, the pest or weed control at 62 g/ha [9, 20] was 100%, the pest or weed control at 125 g/ha [9, 20] was 100% and the pest or weed control at 62 g/ha ([9]; pre-emergence, Preemergence, scale 0 to 100, 0 no effect, 100 complete control, read-out: Plant response rating, Velvetleaf) was 80%. For the same molecule, the pest or weed control at 125 g/ha ([9]; pre-emergence, Preemergence, scale 0 to 100 (0 no effect, 100 complete control), read-out: Plant response rating, Velvetleaf) was 100%, the plant injury at 62 g/ha [10, 21] was 40% and the plant injury at 125 g/ha [10, 21] was 50%. It also gave a plant injury at 62 g/ha [10, 22] of 70%, a plant injury at 125 g/ha [10, 22] of 80% and a pest or weed control at 62 g/ha [11] of 60%. The pest or weed control at 62 g/ha (wild oat (Avena fatua); 62 g ai/ha) was 30%, the pest or weed control at 125 g/ha (wild oat (Avena fatua); 125 g ai/ha) was 60% and the pest or weed control at 125 g/ha ([12]; 125 g ai/ha) was 0%. The pest or weed control at 500 g/ha ([12]; 500 g ai/ha) was 30%, the pest or weed control at 125 g/ha ([13]; 125 g ai/ha) was 90% and the pest or weed control at 500 g/ha ([13]; 500 g ai/ha) was 100%. For the same molecule, the plant injury at 125 g/ha (rice (Oryza sativa); 125 g ai/ha) was 0%, the plant injury at 500 g/ha (rice (Oryza sativa); 500 g ai/ha) was 40% and the pest or weed control at 125 g/ha ([14]; 125 g ai/ha) was 90%. The pest or weed control at 500 g/ha ([14]; 500 g ai/ha) was 90%.
